Assay results taken from patent EP4653435A1, “PRMT5-MTA INHIBITOR” (Suzhou Puhe Biopharma Co., Ltd., priority 2023, dated 2024).
Where two headings read alike, the source gives them in different places.

Tests used:
HCT116-MTAPwt = assay: 2D antiproliferative assay (CTG cell viability), wild-type cells; type: cell-based; settings: Homo sapiens, HCT-116, 7-10 days
Method: (§1) HCT116 wild-type and MTAP-deficient cells were cultured in McCoy's 5A medium containing 10% FBS and 1% penicillin-streptomycin, and cultured in a 37°C, 5% CO2 constant temperature incubator. 40 µL of cell suspension was introduced into each well of a 384-well microplate. 40 nL of different concentrations of test compounds were added to each well using an Echo, before culturing in a 37°C, 5% CO2 constant temperature incubator for 7-10 days. 40 µL of CTG solution (Promega, Cat No. G7573) was added to each well and incubated in a 37°C, 5% CO2 constant temperature incubator for 30 minutes in the dark.

HCT116-MTAPdel = assay: 2D antiproliferative assay (CTG cell viability), MTAP-deficient cells; type: cell-based; settings: for IC50: Homo sapiens; for HCT116WT IMTAPdel selectivity: ratio IC50 wild type / MTAPdel, antiproliferation
Method: as §1

[1] = Liver microsomal stability assay, human
Method: The compounds to be tested were co-incubated with liver microsomes of different species with or without the addition of NADPH. The final concentration of the test compounds in the test system was 1 µM, the final concentration of NADPH was 1 mM, and the final concentration of liver microsomes was 0.5 mg/mL.

[2] = HCT-116, HCT116 MTAP-deficient cells, 7-10 days, CTG, read-out: HCT116-MTAPdel/IC50/nM

| SMILES | IC50 (HCT116-MTAPwt) [nM] | IC50 (HCT116-MTAPdel; [2]) [nM] | HCT116WT IMTAPdel selectivity (HCT116-MTAPdel) | CLint scaled at 1 h, 1 µM ([1]; liver microsomes) [mL/min/kg] | CLint scaled at 1 h, 1 µM ([1]; microsomes) [mL/min/kg] | CLint scaled at 1 µM ([1]; liver microsomes) [mL/min/kg] | IC50 (HCT116-MTAPdel; HCT-116, read-out: HCT116-MTAPdel/IC50/nM) [nM] |
| --- | --- | --- | --- | --- | --- | --- | --- |
| CC1CCC(c2ccc3sc(C4CCN(C)CC4)nc3c2)N(C(=O)C(=O)Nc2cnc(N)c3c2cnn3C)C1 (racemic) [Compound P5] | 36 | 4 | 9 | 10.7 | – | – | – |
| Cc1nc2cc(C3CCC(C)CN3C(=O)C(=O)Nc3cnc(N)c4c3cnn4C)ccc2s1 (racemic) [Compound P10] | 800 | 10 | 80 | – | – | – | – |
| C[C@H]1COC[C@@H](c2ccc(C(F)(F)F)cn2)N1C(=O)C(=O)Nc1cnc(N)c2c1cnn2C (racemic) [Compound P11] | 855 | 15 | 57 | – | 16.5 | – | – |
| C[C@H]1COC[C@@H](c2ccc(OC(F)(F)F)cc2)N1C(=O)C(=O)Nc1cnc(N)c2c1cnn2C (racemic) [Compound P12] | 607 | 5 | 121 | – | – | – | – |
| C[C@H]1CC[C@H](c2ccc3sc(CN(C)C)nc3c2)N(C(=O)C(=O)Nc2cnc(N)c3c2cnn3C)C1 (racemic) [Compound P14] | 295 | 11 | 27 | – | – | – | – |
| C[C@H]1CC[C@H](c2ccc3sc(CCN(C)C)nc3c2)N(C(=O)C(=O)Nc2cnc(N)c3c2cnn3C)C1 (racemic) [Compound P15] | 203 | 6 | 34 | – | 9.7 | – | – |
| C[C@H]1CC[C@H](c2ccc3sc(C(F)(F)F)nc3c2)N(C(=O)C(=O)Nc2cnc(N)c3c2cnn3C)C1 (racemic) [Compound P16] | 891 | 11 | 81 | – | – | – | – |
| C[C@H]1CC[C@H](c2ccc3sc(-c4cccnc4)nc3c2)N(C(=O)C(=O)Nc2cnc(N)c3c2cnn3C)C1 (racemic) [Compound P17] | 606 | 8 | 76 | – | – | – | – |
| C[C@H]1CC[C@H](c2ccc3sc(C4CCOCC4)nc3c2)N(C(=O)C(=O)Nc2cnc(N)c3c2cnn3C)C1 (racemic) [Compound P18] | 900 | 14 | 64 | – | – | – | – |
| Cn1ncc2c(NC(=O)C(=O)NC3COc4cc(C(F)(F)F)ccc43)cnc(N)c21 (stereo not shown) [Compound A1, reference compound] | > 10000 | > 10000 | – | – | – | – | – |
| CN(C(=O)C(=O)Nc1cnc(N)c2c1cnn2C)[C@@H]1COc2cc(-c3cncc(Cl)c3)ccc21 [Compound H1a] | 2320 | 9 | 258 | – | – | – | – |
| CN(C(=O)C(=O)Nc1cnc(N)c2c1cnn2C)[C@H]1COc2cc(-c3cncc(Cl)c3)ccc21 [Compound H1b] | > 10000 | 300 | >33 | – | – | – | – |
| CN(C(=O)C(=O)Nc1cnc(N)c2c1cnn2C)[C@H]1COCc2nc(-c3cncc(Cl)c3)ccc21 [Compound H2a] | > 10000 | 224 | >45 | – | – | – | – |
| CN(C(=O)C(=O)Nc1cnc(N)c2c1cnn2C)[C@@H]1COCc2nc(-c3cncc(Cl)c3)ccc21 [Compound H2b] | 1230 | 4 | 308 | – | – | 21.3 | – |
| CN(C(=O)C(=O)Nc1cnc(N)c2c1cnn2C)[C@H]1COc2cc(C(F)(F)F)ccc21 [Compound P2b] | > 10000 | 118 | 85 | – | – | – | – |
| C[C@@H]1CC[C@@H](c2ccc3scnc3c2)N(C(=O)C(=O)Nc2cnc(N)c3c2cnn3C)C1 [Compound P3a] | > 10000 | – | – | – | – | – | 666 |
| C[C@H](c1ncccn1)N(Cc1ccc(C(F)(F)F)cn1)C(=O)C(=O)Nc1cnc(N)c2cnn(C)c12 [Compound P4] | > 10000 | 813 | >12 | – | – | – | – |
| CCn1ncc2c(NC(=O)C(=O)N(Cc3ccc(C(F)(F)F)cn3)[C@H](C)c3ncccn3)cnc(N)c21 [Compound P6] | 1300 | 18 | 72 | – | – | – | – |
| C[C@H](c1ncccn1)N(Cc1ccc(C(F)(F)F)cn1)C(=O)C(=O)Nc1cnc(N)c2c1cnn2C1CC1 [Compound P7] | 2520 | 56 | 45 | – | – | – | – |
| C[C@H](c1ncccn1)N(Cc1ccc(-c2cncc(Cl)c2)cn1)C(=O)C(=O)Nc1cnc(N)c2c1cnn2C [Compound P8] | 161 | 4 | 40 | – | – | – | – |
| CN(C(=O)C(=O)Nc1cnc(N)c2c1cnn2C)C1COCc2nc(C(F)(F)F)ccc21 (stereo not shown) [Compound P9] | 1420 | 24 | 59 | – | – | 5 | – |

| SMILES | IC50 (HCT116-MTAPwt) [nM] | IC50 (HCT116-MTAPdel; [2]) [nM] | HCT116WT IMTAPdel selectivity (HCT116-MTAPdel) | CLint scaled at 1 h, 1 µM ([1]; liver microsomes) [mL/min/kg] | CLint scaled at 1 h, 1 µM ([1]; microsomes) [mL/min/kg] | CLint scaled at 1 µM ([1]; liver microsomes) [mL/min/kg] | IC50 (HCT116-MTAPdel; HCT-116, read-out: HCT116-MTAPdel/IC50/nM) [nM] |
| --- | --- | --- | --- | --- | --- | --- | --- |
| CN(C(=O)C(=O)Nc1cnc(N)c2c1cnn2C)[C@H]1COCc2nc(C(F)(F)F)ccc21 [Compound P9b] | > 10000 | 883 | >11 | – | – | – | – |
| C[C@H]1COC[C@@H](c2ccc(C(F)(F)F)cn2)N1C(=O)C(=O)Nc1cnc(N)c2c1cnn2C [Compound P11a] | > 10000 | 1910 | >5 | – | – | – | – |
| C[C@@H]1COC[C@H](c2ccc(C(F)(F)F)cn2)N1C(=O)C(=O)Nc1cnc(N)c2c1cnn2C [Compound P11b] | 427 | 8 | 53 | – | – | – | – |
| C[C@H]1COC[C@@H](c2ccc(-c3cncc(Cl)c3)cn2)N1C(=O)C(=O)Nc1cnc(N)c2c1cnn2C [Compound P13a] | > 10000 | 616 | >16 | – | – | – | – |
| C[C@@H]1COC[C@H](c2ccc(-c3cncc(Cl)c3)cn2)N1C(=O)C(=O)Nc1cnc(N)c2c1cnn2C [Compound P13b] | 506 | 2 | 253 | – | – | – | – |
| CCN(C(=O)C(=O)Nc1cnc(N)c2c1cnn2C)[C@H]1COc2cc(C(F)(F)F)ccc21 [Compound P19b] | 3860 | 261 | 15 | – | – | – | – |
| Cn1ncc2c(NC(=O)C(=O)N(CC(F)(F)F)[C@@H]3COc4cc(C(F)(F)F)ccc43)cnc(N)c21 [Compound P20a] | 6020 | 28 | 215 | – | – | 19.2 | – |
| Cn1ncc2c(NC(=O)C(=O)N(CC(F)(F)F)[C@H]3COc4cc(C(F)(F)F)ccc43)cnc(N)c21 [Compound P20b] | > 10000 | 883 | 11 | – | – | – | – |
| Cn1ncc2c(NC(=O)C(=O)N(C3CC3)[C@H]3COc4cc(C(F)(F)F)ccc43)cnc(N)c21 [Compound P21a] | > 10000 | 978 | 10 | – | – | – | – |
| Cn1ncc2c(NC(=O)C(=O)N(C3CC3)[C@@H]3COc4cc(C(F)(F)F)ccc43)cnc(N)c21 [Compound P21b] | 847 | 6 | 141 | – | – | – | – |
| [2H]C([2H])([2H])n1ncc2c(NC(=O)C(=O)N(C)[C@@H]3COc4cc(C(F)(F)F)ccc43)cnc(N)c21 [Compound P23] | 1710 | 17 | 101 | – | – | – | – |
| CCn1ncc2c(NC(=O)C(=O)N(C)[C@@H]3COc4cc(C(F)(F)F)ccc43)cnc(N)c21 [Compound P24] | > 10000 | 2410 | >4 | – | – | – | – |
| CCn1ncc2c(NC(=O)C(=O)N(C)[C@@H]3COCc4nc(C(F)(F)F)ccc43)cnc(N)c21 [Compound P25] | > 10000 | 1260 | >8 | – | – | – | – |
| [2H]C([2H])([2H])n1ncc2c(NC(=O)C(=O)N(C)[C@@H]3COCc4nc(C(F)(F)F)ccc43)cnc(N)c21 [Compound P26] | 4550 | 12 | 380 | – | – | – | – |
| [2H]C([2H])([2H])N(C(=O)C(=O)Nc1cnc(N)c2c1cnn2C)[C@@H]1COCc2nc(C(F)(F)F)ccc21 [Compound P27] | 2110 | 15 | 141 | – | – | – | – |
| CCN(C(=O)C(=O)Nc1cnc(N)c2c1cnn2C)[C@H]1COCc2nc(C(F)(F)F)ccc21 [Compound P28a] | 2340 | 986 | 2 | – | – | – | – |
| CN(C(=O)C(=O)Nc1cnc(N)c2c1cnn2C)[C@@H]1COc2cc(OC(F)(F)F)ccc21 [Compound P30a] | 1550 | 7 | 221 | – | – | – | – |
| CN(C(=O)C(=O)Nc1cnc(N)c2c1cnn2C)[C@H]1COc2cc(OC(F)(F)F)ccc21 [Compound P30b] | > 10000 | 191 | >52 | – | – | – | – |
| CSc1ccc2c(c1)OCC2N(C)C(=O)C(=O)Nc1cnc(N)c2c1cnn2C (stereo not shown) [Compound P31] | 3580 | 21 | 171 | – | – | – | – |
| CC(=O)N1CCC(Nc2cc(C(=O)NC[C@H](O)CN3CCc4ccccc4C3)ncn2)CC1 [GSK3326595, reference compound] | 72 | 17 | 4 | – | – | – | – |
